This note sets out measurements from publication PMC6934184, “Selective DNA-PKcs inhibition extends the therapeutic index of localized radiotherapy and chemotherapy” (The Journal of Clinical Investigation, 2019).

In the assay the target is T1, DYRK1A (Homo sapiens, UniProt Q13627).
T1 construct: purchased Thermo Fisher Scientific (Life Technologies) SelectScreen
Description: SelectScreen Z'LYTE. Type of assay: biochemical. The method in brief: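 SelectScreen broad panel; activity (Z'LYTE, Adapta) plus binding formats. ATP: Km app for CSF1R Z'LYTE; 10 for CAMK1 Adapta. Readout = % per kinase.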

As for `CN(C(=O)CN1CCOCC1)c1ccc2sc3c(-c4cccc5c(=O)cc(N6CC7CCC(C6)O7)oc45)cccc3c2c1` [NU5455], 1 µM produced 6.4% inhibition.

One may read the inhibition as the relative decrease from the control value, in per cent. Read a high inhibition as a strong effect.
